According to patent publication US5214034A, “Catechol derivatives, and preventive and remedial preparations for regressive disorders in the central nervous system containing the same” (priority 1986, dated 1993):
Read-outs that look alike come from different tables or passages of the source.

What was measured:
Acute toxicity (LD50) = details: mouse, in vivo
Procedure: The catechol derivative having normal type saturated lower alkyl groups on the ring was administered by intravenous injection (i.v.), intraperitoneal injection (i.p.) or oral route (p.o.) to male ddy mice of 4-week old. The LD50 values (mg/kg) were measured by an ordinary method.

NGF = NGF production in the central nervous system of normal rats by intraperitoneal injection (NGF content of brain tissue, ELISA); assay type: in vivo, rat (Wistar male); details: Table 7, i.p., three times every other day
Procedure: The derivative (A), e.g. R=Two H, R1 =H and R2 =n-propyl (hereinafter referred to as 4-n-propylcatechol), was administered to normal rats by intraperitoneal injection, and the effect was examined.
4-n-Propylcatechol was administered by intraperitoneal injection 4 times every other day in a dosage of 5 mg/kg. The rats were killed two days after the final administration. The NGF content of each parts in brain was measured. The content was compared with those of control group which was administered saline alone.
A variety of the derivative was administered three times every other day. The content of NGF in the forebrain after 48 hours and 7 days from the final administration was measured and illustrated in Table 7.
Wistar male rats (9-10-week old, 200-250 g of weight) were intraperitoneally injected with the test derivative in a volume of 0.5 ml as a saline solution, emulsion or suspension. Dose and administration times were the same as above. The rats were killed by a hard spinal blow two days after the final administration. Each parts of brain were dissected and subjected to the following treatment under ice cooling.
Each parts of brain were weighed and homogenized for 30 strokes by a Dounce type homogenizer in a homogenization buffer (0.1 M Tris-HCl, containing 2% bovine serum albumin fraction V, 2% gelatin, 1.0 M NaCl, 0.02% NaN3, 2 mM EDTA and 2.6 kiu/ml of aprotinin, pH 7.6) at a concentration of 10% (W/V) (only septum 5% (W/V)). Each homogenate was centrifuged at 100,000 xg for 10 minutes, and 50 μl of supernatant was added with the same amount of a dilution buffer (0.1 M Tris-HCl containing 2% bovine serum albumin fraction V, 0.05% NaN3 and 20 mM CaCl2, pH 7.6). Determination was conducted in accordance with a method of S. Furukawa et al. by using a high sensitivity ELISA system on 8-NGF which was described in J. Neurochem., 40, 734-744 (1983). Lower limit of determination is 0.25 pg/ml. Data are indicated as a mean value ±SE on the NGF content of tissue (pg/mg wet tissue) of five rats.

[1] = tested on: rats injected with kainic acid at basal forebrain / sham-operated rats; assay: Retention of passive avoidance learning: prevention of retention deficits; assay type: in vivo, rat (male Sprague-Dawley); details: Table 8, i.p. 5 mg/kg on days 1, 4, 7
Procedure: (§1) Effects of the derivative on the behavioral parameters of rats injected with kainic acid at basal forebrain were characterized with regard to both prevention against deficits in retention of passive avoidance learning and promotion of recovery from damaged state by repeated learning.
(§2) Male Sprague-Dawley rats (9-10 weeks of age, 200-250 g of weight) were anesthetized with Nembutal (50 mg/kg, i.p.) and placed in a stereotaxic apparatus. Bilateral lesions of the ventral globus pallidus were made by direct stereotaxic application (0.7 mm posterior to bregma, 2.7 mm lateral to the midline, and 7.0 mm ventral to the brain surface) of 0.25 μg of kainic acid in 1 μl of PBS (pH 7.4) to prepare disordered models. Controls were sham-operated rats injected with PBS in place of kainic acid solution.
(§3) Passive avoidance procedures were performed by using a two chambered step-through passive avoidance apparatus with a guillotine door. A 3 mA scrambled shock was delivered to the dark floor grids for 3 seconds as a punishment. Habituation trial was conducted prior to the acquisition trial. Each rats were placed in the illuminated chamber and the guillotine door was raised after 10 seconds. As soon as the rats entered into the dark chamber, the door was lowered. The rats were removed after 10 seconds and returned to their home cages. […] The acquisition trial was performed similarly to the habituation trial. In the former case, a rat was placed in the illuminated room and the door was opened after 10 seconds. The door was shut immediately after the rat entered into the dark room, a scrambled foot shock was applied, and then the animal was removed. The latency to enter the dark chamber after opening the door was recorded for 300 seconds in the retention of passive avoidance. The latency exceeding 300 seconds was calculated as 300 seconds.
The preventive effects on deficits in retention were estimated by using 60 rats. Thirty rats were injected with kainic acid and other 30 rats were sham-operated with PBS.
Each groups of animals were equally divided into three groups which were received intraperitoneally 5 mg/kg of the derivative (A) (R=2H, R1 =H, R2 =n-propyl, that is, 4-n-propylcatechol), derivative A (R=--CO--, R1 =H, R2 =n-propyl) and saline respectively as a saline solution on one, four and seven days after the operation.
Table 8 illustrates the results obtained by conducting the acquisition trial 10 days after the operation and the retention test after 24 hours.

[2] = tested on: rats injected with kainic acid at basal forebrain; assay: Promotion of recovery from retention deficits by repeated learning (passive avoidance); assay type: in vivo, rat (male Sprague-Dawley); design: key: latency in seconds to enter dark chamber, capped at 300 s; details: Table 9, i.p. 5 mg/kg before each trial
Procedure: as §1, §2, §3
The promoting effects on the recovery by repeated training from the damaged state of retention were acessed by using 30 rats injected with kainic acid. Rats were subjected to the acquisition trial 10 days after the operation. The rats were equally divided into 3 groups after 24 hours and injected intrapenitroneally with 5 mg/kg of 4-n-propylcatechol and the derivative (A) (R=--CO--, R=H, R2 =n-propyl) respectively as a saline solution. The remaining 10 rats were intraperitoneally injected with saline alone. The first retention trial was carried out two days after the injection. Rats which entered into the dark chamber within 30 seconds were punished by the scrambled foot shock as a training. On the next day, all animals were administered again the same amount of test derivative or saline. These animals were subjected to the second retention trial two days after the second injection.
Retention trials, punishments and additional administrations were repeated as mentioned above four times in all.

CCCc1ccc2oc(=O)oc2c1 [R = --CO--, R1 = H, R2 = n-Propyl]
LD50 (Acute toxicity (LD50); ip, intraperitoneal injection, read-out: LD50 i.p.): > 1000 mg/kg
LD50 (Acute toxicity (LD50); intravenous injection, read-out: LD50 i.v.): > 250 mg/kg
LD50 (Acute toxicity (LD50); oral route, read-out: LD50 p.o.): > 2500 mg/kg
NGF content after 48 hr. (NGF; 48 hours after final administration): 1.66 ± 0.23 pg/mg wet tissue of frontal co
NGF content after 7 days (NGF; 7 days after final administration): 2.23 ± 0.39 pg/mg wet tissue of frontal co
Animals with more than 150 sec of latency ([1]; rats operated with kainic acid): 4 in 10 animals
Mean latency ([1]; rats operated with kainic acid, *P < 0.01 vs control): 152 ± 29 s
Animals with more than 150 sec of latency ([1]; sham-operated rats): 10 in 10 animals
Mean latency ([1]; sham-operated rats): 291 ± 7 s
Mean latency, 1st retention trial [2]: 46 ± 13
Mean latency, 4th retention trial ([2]; **P < 0.01): 284 ± 15
Mean latency, 2nd retention trial ([2]; *P < 0.05): 167 ± 31
Mean latency, 3rd retention trial ([2]; *P < 0.05): 236 ± 28
